The experiment deals with HIF PHD2 (Homo sapiens, UniProt Q9GZT9). The experiment can be described thus: PHD2 inhibition assay (TR-FRET, VCB-Eu detection of hydroxylated P564-HIF1α peptide). To be noted: 2 nM PHD2, 100 nM P564-HIF1α peptide, 0.25 μM 2-oxoglutarate. Format: biochemical. Put shortly: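 Human PHD2 (2 nM final) preincubated 1 h at room temperature with compound and 100 μM FeCl2 in pH 6 MES buffer, 5% DMSO final. Reaction with 100 nM biotinylated P564-HIF1α peptide, 2 mM ascorbate and 0.25 μM 2-oxoglutarate for 1 h, stopped with succinate. Hydroxylation read by TR-FRET (VCB-Eu/streptavidin-APC, 655/615 nm); IC50 from 4-parameter fit of percent of control.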

Counter-ions that a name gives are not always drawn.

Chain of HIF PHD2 (Q9GZT9 whole entry): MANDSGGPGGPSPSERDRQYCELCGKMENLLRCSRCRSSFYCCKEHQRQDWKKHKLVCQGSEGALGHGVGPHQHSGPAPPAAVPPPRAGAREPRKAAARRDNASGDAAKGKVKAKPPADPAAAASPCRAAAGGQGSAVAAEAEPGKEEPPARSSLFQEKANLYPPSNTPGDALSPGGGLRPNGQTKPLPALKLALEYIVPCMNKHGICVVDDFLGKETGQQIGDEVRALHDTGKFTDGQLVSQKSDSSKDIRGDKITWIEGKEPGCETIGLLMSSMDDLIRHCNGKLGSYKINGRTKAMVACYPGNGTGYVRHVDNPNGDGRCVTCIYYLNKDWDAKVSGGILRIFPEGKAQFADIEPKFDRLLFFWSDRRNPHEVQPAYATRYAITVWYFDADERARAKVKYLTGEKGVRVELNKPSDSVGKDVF

The IC50 is the concentration that inhibits the measured activity by half. In turn, `CN1CCC(c2cc3c(O)c(C(=O)NCC(=O)O)c(=O)n(C)c3cn2)CC1` [Example 117, 2-(4-Hydroxy-1-methyl-6-(1-methylpiperidin-4-yl)-2-oxo-1,2-dihydro-1,7-naphthyridine-3-carboxamido)acetic acid, Trifluoroacetic acid salt] registered an IC50 of less than 0.05 µM. Molecule `CC(=O)N1CC=C(c2cc3c(O)c(C(=O)NCC(=O)O)c(=O)n(C)c3cn2)CC1` [Example 118, 2-(6-(1-Acetyl-1,2,3,6-tetrahydropyridin-4-yl)-4-hydroxy-1-methyl-2-oxo-1,2-dihydro-1,7-naphthyridine-3-carboxamido)acetic acid, Trifluoroacetic acid salt] registered an IC50 of less than 0.05 µM.

The molecule `CC(=O)N1CCC(c2cc3c(O)c(C(=O)NCC(=O)O)c(=O)n(C)c3cn2)CC1` [Example 119, 2-(6-(1-Acetylpiperidin-4-yl)-4-hydroxy-1-methyl-2-oxo-1,2-dihydro-1,7-naphthyridine-3-carboxamido)acetic acid, Trifluoroacetic acid salt] showed an IC50 of less than 0.05 µM. As for `Cn1c(=O)c(C(=O)NCC(=O)O)c(O)c2cc(N3CCOCC3)ncc21` [Example 120, 2-(4-Hydroxy-1-methyl-6-morpholino-2-oxo-1,2-dihydro-1,7-naphthyridine-3-carboxamido)acetic acid, Trifluoroacetic acid salt], the IC50 was less than 0.05 µM. The molecule `Cn1c(=O)c(C(=O)NCC(=O)O)c(O)c2cc(N3CCCCC3)ncc21` [Example 121, 2-(4-Hydroxy-1-methyl-2-oxo-6-(piperidin-1-yl)-1,2-dihydro-1,7-naphthyridine-3-carboxamido)acetic acid, Trifluoroacetic acid salt] returned an IC50 of 0.05 to 0.1 µM. The molecule `CN1CCN(c2cc3c(O)c(C(=O)NCC(=O)O)c(=O)n(C)c3cn2)CC1` [Example 122, 2-(4-Hydroxy-1-methyl-6-(4-methylpiperazin-1-yl)-2-oxo-1,2-dihydro-1,7-naphthyridine-3-carboxamido)acetic acid, Trifluoroacetic acid salt] gave an IC50 of 0.1 to 0.5 µM. Regarding `Cn1c(=O)c(C(=O)NCC(=O)O)c(O)c2cc(Cl)[n+]([O-])cc21` [Example 123, 2-(6-Chloro-4-hydroxy-1-methyl-2-oxo-1,2-dihydro-1,7-naphthyridine-3-carboxamido)acetic acid, N-oxide], the IC50 is less than 0.05 µM.

With `Cn1c(=O)c(C(=O)NCC(=O)O)c(O)c2cc(-c3ccccc3)nc(C(F)(F)F)c21` [Example 124, 2-(4-Hydroxy-1-methyl-2-oxo-6-phenyl-8-(trifluoromethyl)-1,2-dihydro-1,7-naphthyridine-3-carboxamido)acetic acid], the IC50 was 0.1 to 0.5 µM.

In the case of `Cc1ccccc1-c1cc2c(O)c(C(=O)NCC(=O)O)c(=O)n(C)c2c(C(F)(F)F)n1` [Example 125, N-((4-Hydroxy-1-methyl-6-(2-methylphenyl)-2-oxo-8-(trifluoromethyl)-1,2-dihydro-1,7-naphthyridin-3-yl)carbonyl)glycine], the IC50 was less than 0.05 µM. Then `Cn1c(=O)c(C(=O)NCC(=O)O)c(O)c2ccnc(Cl)c21` [Example 126, 2-(8-Chloro-4-hydroxy-1-methyl-2-oxo-1,2-dihydro-1,7-naphthyridine-3-carboxamido)acetic acid], with 0.05 to 0.1 µM; and `Cn1c(=O)c(C(=O)NCC(=O)O)c(O)c2ccnc(C(F)(F)F)c21` [Example 127, 2-(4-Hydroxy-1-methyl-2-oxo-8-(trifluoromethyl)-1,2-dihydro-1,7-naphthyridine-3-carboxamido)acetic acid], with less than 0.05 µM. `Cn1c(=O)c(C(=O)NCC(=O)O)c(O)c2ccnc(-c3ccccc3)c21` [Example 128, 2-(4-Hydroxy-1-methyl-2-oxo-8-phenyl-1,2-dihydro-1,7-naphthyridine-3-carboxamido)acetic acid] had an IC50 of less than 0.05 µM.

In turn, `Cn1c(=O)c(C(=O)NCC(=O)O)c(O)c2c(NCC(=O)O)nccc21` [Example 129, 2-{4-Hydroxy-1-methyl-2-oxo-3-[(carboxymethyl)carbamoyl]-1,2-dihydro-1,6-naphthyridin-5-ylamino}acetic acid, Trifluoroacetic acid salt] returned an IC50 of less than 0.05 µM. `Cn1c(=O)c(C(=O)NCC(=O)O)c(O)c2c(Br)nccc21` [Example 130, 2-(5-Bromo-4-hydroxy-1-methyl-2-oxo-1,2-dihydro-1,6-naphthyridine-3-carboxamido)acetic acid, Trifluoroacetic acid salt]: the IC50 was less than 0.05 µM. The molecule `Cn1c(=O)c(C(=O)NCC(=O)O)c(O)c2c(Cl)nccc21` [Example 131, 2-(5-Chloro-4-hydroxy-1-methyl-2-oxo-1,2-dihydro-1,6-naphthyridine-3-carboxamido)acetic acid] yielded an IC50 of less than 0.05 µM. Regarding `Cn1c(=O)c(C(=O)NCC(=O)O)c(O)c2c(C(F)(F)F)nccc21` [Example 132, 2-(4-Hydroxy-1-methyl-2-oxo-5-(trifluoromethyl)-1,2-dihydro-1,6-naphthyridine-3-carboxamido)acetic acid, Trifluoroacetic acid salt], the IC50 lay in the range of 0.05 to 0.1 µM. `Cn1c(=O)c(C(=O)N[C@@H](CO)C(=O)O)c(O)c2cc(C3=CCCCC3)cnc21` [Example 133, (S)-2-(6-cyclohexenyl-4-hydroxy-1-methyl-2-oxo-1,2-dihydro-1,8-naphthyridine-3-carboxamido)-3-hydroxypropanoic acid] had an IC50 of 0.5 to 1 µM.

The record behind these values is patent US8048892B2, “Azaquinolone based compounds exhibiting prolyl hydroxylase inhibitory activity, compositions, and uses thereof” (Amgen Inc., priority 2006, dated 2011).
